Some test systems named below: HCT-116 colon; HL-60(TB) leukemia; MDA-MB-435; NCI/ADR-RES ovarian; OVCAR-3 ovarian; OVCAR-8 ovarian; PC-3 prostate; SK-MEL-28 melanoma; SK-MEL-5 melanoma; TK-10 renal.
Holding throughout (experiment): NCI anticancer screen, dose series, 48 h

Among the data in PubChem BioAssay (NCI) are GI50 and TGI values, retold here.

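Interpolation was linear, between the two tested concentrations surrounding the appropriate level; five concentrations were tested over 48 hours in 96-well plates. GI50 = concentration required for 50% inhibition of growth. TGI marks complete inhibition of growth.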

In the case of `CCC(CO)Nc1nc(NCc2ccccc2)c2n[nH]c(C(C)C)c2n1` (stereo not given), the GI50 in the assay with HCT-116 colon was 4.03 µM; with HL-60(TB) leukemia, 4.87 µM; with MDA-MB-435 it was 10 µM; in the assay with NCI/ADR-RES ovarian, 16.7 µM; with OVCAR-3 ovarian, 7.32 µM; in the assay on OVCAR-8 ovarian, 8.98 µM. Moreover, the GI50 in the assay with PC-3 prostate was 7.01 µM; in the assay on SK-MEL-28 melanoma, 10.5 µM; in the assay on SK-MEL-5 melanoma, 4.91 µM; in the assay on TK-10 renal, 13.7 µM. Moreover, the TGI is 14.5 µM in the assay with HCT-116 colon; 21 µM in the assay with HL-60(TB) leukemia; 24 µM with MDA-MB-435; 39.2 µM in the assay with NCI/ADR-RES ovarian; 22.7 µM with OVCAR-3 ovarian; 31.1 µM in the assay on OVCAR-8 ovarian. In addition, the TGI in the assay with PC-3 prostate turned out to be 31.5 µM; with SK-MEL-28 melanoma, 27.7 µM; in the assay with SK-MEL-5 melanoma it was 17.3 µM; in the assay with TK-10 renal, 33.1 µM.

As for `[Mn+3].[O-][Cl+3]([O-])([O-])O.[O-]c1ccccc1C=NCCN1CC1.[O-]c1ccccc1C=NCCN1CC1`, the GI50 in the assay with HCT-116 colon is 15.1 µM; with HL-60(TB) leukemia it was 14.7 µM; in the assay with MDA-MB-435, 37 µM; with NCI/ADR-RES ovarian, 19.3 µM; in the assay with OVCAR-3 ovarian, 19.6 µM; with OVCAR-8 ovarian it was 17.8 µM. Moreover, the GI50 in the assay on PC-3 prostate is 19.9 µM; in the assay with SK-MEL-28 melanoma, 35.8 µM; with SK-MEL-5 melanoma, 17.6 µM; with TK-10 renal, 50.7 µM. Besides, the TGI was over 100 µM with HCT-116 colon; 37 µM with HL-60(TB) leukemia; over 100 µM with MDA-MB-435; 49.8 µM in the assay with NCI/ADR-RES ovarian; 40.1 µM in the assay with OVCAR-3 ovarian; over 100 µM with OVCAR-8 ovarian. Moreover, the TGI is over 100 µM with PC-3 prostate, over 100 µM in the assay on SK-MEL-28 melanoma, 80.8 µM in the assay with SK-MEL-5 melanoma and over 100 µM with TK-10 renal.

On to `C#Cc1cccc(Nc2nc(C)nc3cc(NC(=O)CCl)ccc23)c1`, for which the GI50 in the assay with HCT-116 colon is 0.654 µM; in the assay with HL-60(TB) leukemia it was 2.63 µM; in the assay on MDA-MB-435 it was 1.49 µM; with NCI/ADR-RES ovarian, 3.42 µM; in the assay on OVCAR-3 ovarian it was 2.7 µM; in the assay with OVCAR-8 ovarian it was 2.07 µM. Further, the GI50 was 2.53 µM in the assay with PC-3 prostate, 3.7 µM in the assay on SK-MEL-28 melanoma, 3.56 µM in the assay with SK-MEL-5 melanoma and 3.52 µM in the assay with TK-10 renal. Also, the TGI in the assay on HCT-116 colon worked out at 2.66 µM; with HL-60(TB) leukemia, 7.67 µM; in the assay on MDA-MB-435 it was 4.75 µM; in the assay on NCI/ADR-RES ovarian, 12.5 µM; with OVCAR-3 ovarian it was 6.06 µM; in the assay on OVCAR-8 ovarian it was 6.12 µM. Moreover, the TGI in the assay with PC-3 prostate is 6.16 µM; in the assay with SK-MEL-28 melanoma, 7.41 µM; in the assay on SK-MEL-5 melanoma, 7.04 µM; with TK-10 renal it was 6.77 µM.

For `O=C1NN(C(=O)c2ccccc2)C(c2ccc(Cl)c(Cl)c2)=C/C1=C\c1ccccc1[N+](=O)[O-]`, the GI50 in the assay on HCT-116 colon was 2.03 µM; in the assay on HL-60(TB) leukemia, 2.01 µM; with MDA-MB-435, over 6.75 µM; with NCI/ADR-RES ovarian, 2.29 µM; in the assay with OVCAR-3 ovarian, 2.4 µM; in the assay with OVCAR-8 ovarian, 2.63 µM. Also, the GI50 with PC-3 prostate was 1.52 µM; with SK-MEL-28 melanoma, 2.72 µM; with SK-MEL-5 melanoma it was 1.17 µM; with TK-10 renal it was 4.26 µM. Besides, the TGI in the assay on HCT-116 colon, with HL-60(TB) leukemia, in the assay on MDA-MB-435, in the assay with NCI/ADR-RES ovarian, in the assay on OVCAR-3 ovarian and in the assay on OVCAR-8 ovarian was over 6.75 µM in each case. Further, the TGI in the assay with PC-3 prostate was over 6.75 µM; in the assay with SK-MEL-28 melanoma, over 6.75 µM; in the assay with SK-MEL-5 melanoma it was 2.19 µM; in the assay with TK-10 renal, over 6.75 µM.

Take `COc1cc(/C=C2\C[C@H]3[C@@H]4CC=C5C[C@@H](O)CC[C@]5(C)[C@H]4CC[C@]3(C)[C@H]2O)ccc1OCCN1CCCCC1`: the GI50 in the assay on HCT-116 colon was 0.254 µM; in the assay with HL-60(TB) leukemia, 1.33 µM; in the assay on MDA-MB-435, 0.945 µM; with NCI/ADR-RES ovarian, 1.46 µM; in the assay with OVCAR-3 ovarian, 0.772 µM; in the assay on OVCAR-8 ovarian, 1.57 µM. The GI50 was 1.03 µM in the assay with PC-3 prostate, 1.06 µM in the assay on SK-MEL-28 melanoma, 0.576 µM in the assay with SK-MEL-5 melanoma and 1.61 µM in the assay with TK-10 renal. Also, the TGI in the assay with HCT-116 colon was 0.494 µM; with HL-60(TB) leukemia it was 3.18 µM; in the assay on MDA-MB-435, 1.8 µM; in the assay on NCI/ADR-RES ovarian, 4.66 µM; in the assay with OVCAR-3 ovarian, 1.53 µM; in the assay on OVCAR-8 ovarian, over 12.1 µM. Besides, the TGI is 7.01 µM with PC-3 prostate, over 50 µM in the assay with SK-MEL-28 melanoma, 1.19 µM in the assay on SK-MEL-5 melanoma and 3.64 µM with TK-10 renal.

For `CCCCNC(=O)Oc1ccc(/C(=C(\C)c2ccc(OC)cc2)c2ccc(OCCN3CCCCC3)cc2)cc1`, the GI50 is 1.15 µM in the assay with HCT-116 colon; 1.53 µM in the assay with HL-60(TB) leukemia; 1.78 µM with MDA-MB-435; 3.67 µM with NCI/ADR-RES ovarian; 2.09 µM in the assay with OVCAR-3 ovarian; 3.4 µM with OVCAR-8 ovarian. Also, the GI50 is 2.35 µM in the assay on PC-3 prostate, 1.75 µM with SK-MEL-28 melanoma, 1.68 µM in the assay on SK-MEL-5 melanoma and 9.41 µM in the assay with TK-10 renal. Further, the TGI in the assay with HCT-116 colon was 2.38 µM; in the assay on HL-60(TB) leukemia it was 3.58 µM; in the assay with MDA-MB-435, 3.67 µM; with NCI/ADR-RES ovarian, 19.3 µM; with OVCAR-3 ovarian it was 4.51 µM; in the assay on OVCAR-8 ovarian, 11.1 µM. Besides, the TGI in the assay on PC-3 prostate amounted to 7.03 µM; with SK-MEL-28 melanoma, 3.4 µM; in the assay with SK-MEL-5 melanoma, 3.08 µM; in the assay on TK-10 renal it was 23.3 µM.

As to `Cn1cnc(SC2=CC(=O)C=C3S[C@H]4C[C@@]23c2c(c(O)c3c5c2=NCCC=5C=N3)N4)c1CC(N)C(=O)O` (stereo not given in full), the GI50 was 2.24 µM with HCT-116 colon; 3.18 µM in the assay on HL-60(TB) leukemia; 1.88 µM in the assay with MDA-MB-435; 23.7 µM with NCI/ADR-RES ovarian; 3.24 µM in the assay on OVCAR-3 ovarian; 3.81 µM with OVCAR-8 ovarian. For the same compound, the GI50 is 13.4 µM in the assay with PC-3 prostate, 16.2 µM in the assay with SK-MEL-28 melanoma, 14.5 µM in the assay with SK-MEL-5 melanoma and 18 µM with TK-10 renal. Also, the TGI in the assay with HCT-116 colon came to 4.88 µM; with HL-60(TB) leukemia, 8.27 µM; in the assay with MDA-MB-435 it was 3.44 µM; with NCI/ADR-RES ovarian, 56.7 µM; in the assay with OVCAR-3 ovarian, 10.7 µM; in the assay with OVCAR-8 ovarian, 14.5 µM. For the same compound, the TGI in the assay with PC-3 prostate was 51.8 µM; in the assay on SK-MEL-28 melanoma, 30.4 µM; with SK-MEL-5 melanoma, 27.6 µM; with TK-10 renal, 36.9 µM.

In the case of `O=C(O)c1nn(-c2ccc(Cl)cc2)c2c1C(=O)c1ccccc1C2=O`, the TGI in the assay with HCT-116 colon, in the assay with HL-60(TB) leukemia, in the assay with MDA-MB-435, with NCI/ADR-RES ovarian, in the assay with OVCAR-3 ovarian and in the assay with OVCAR-8 ovarian was over 100 µM in each case. In addition, the TGI in the assay on PC-3 prostate is over 100 µM; in the assay on SK-MEL-28 melanoma it was over 100 µM; in the assay on SK-MEL-5 melanoma, 53.6 µM; in the assay with TK-10 renal, over 100 µM.

For `Cn1cc(-c2ncnc3ccc(-c4cnc(Cl)c(NS(C)(=O)=O)c4)cc23)c2ccccc21`, the GI50 was 2.37 µM in the assay with HCT-116 colon; 0.538 µM with HL-60(TB) leukemia; 0.514 µM with MDA-MB-435; 1.24 µM in the assay on NCI/ADR-RES ovarian; 0.617 µM in the assay with OVCAR-3 ovarian; 1.72 µM with OVCAR-8 ovarian. For the same compound, the GI50 is 0.361 µM in the assay with PC-3 prostate, 0.306 µM in the assay with SK-MEL-28 melanoma, 1.2 µM in the assay with SK-MEL-5 melanoma and 0.505 µM in the assay on TK-10 renal. For the same compound, the TGI in the assay with HCT-116 colon is 98.1 µM; in the assay with HL-60(TB) leukemia, over 27.8 µM; in the assay with MDA-MB-435, 10.8 µM; in the assay on NCI/ADR-RES ovarian it was 30.3 µM; in the assay with OVCAR-3 ovarian it was 13.8 µM; with OVCAR-8 ovarian, over 100 µM. Further, the TGI with PC-3 prostate was 26.1 µM; in the assay on SK-MEL-28 melanoma, 6.89 µM; with SK-MEL-5 melanoma it was 3.07 µM; in the assay on TK-10 renal, 10.6 µM.

Consider `COc1ccc(-c2c(NC(=O)Nc3ccc(Cl)c(C(F)(F)F)c3)cnn2-c2ccc(S(N)(=O)=O)cc2)cc1`, for which the GI50 is 2.04 µM in the assay with HCT-116 colon; 2.27 µM with HL-60(TB) leukemia; 2.77 µM in the assay with MDA-MB-435; 24.7 µM with NCI/ADR-RES ovarian; 2.4 µM with OVCAR-3 ovarian; 3.39 µM in the assay with OVCAR-8 ovarian. Further, the GI50 in the assay with PC-3 prostate was 2.87 µM; in the assay with SK-MEL-28 melanoma it was 3.73 µM; with SK-MEL-5 melanoma it was 1.9 µM; in the assay with TK-10 renal it was 3.85 µM. For the same compound, the TGI in the assay with HCT-116 colon was 4.22 µM; in the assay with HL-60(TB) leukemia it was 5.67 µM; in the assay on MDA-MB-435 it was 9.6 µM; in the assay on NCI/ADR-RES ovarian, over 100 µM; in the assay with OVCAR-3 ovarian, 6.53 µM; in the assay on OVCAR-8 ovarian, 13 µM. Besides, the TGI in the assay with PC-3 prostate came out at 11.4 µM; with SK-MEL-28 melanoma, 13.7 µM; in the assay on SK-MEL-5 melanoma, 3.85 µM; in the assay with TK-10 renal, 15.3 µM.
